Converted amounts (≈) assume the structure as drawn. Like-named read-outs stand apart in the source and are kept apart here.
Assay: Solubility in acetonitrile, determined by 1H NMR spectroscopy
Type: physicochemical
Experimental: The solubility of each of such mixtures was determined according to the following procedure: acetonitrile was added to the vials containing the samples in aliquots ranging from 0.1 to 1 mL; after every aliquot of solvent was added, each sample was shaken, sonicated, and lightly warmed up with a heat gun (about 40° C.); if the suspended solid persisted, another aliquot was added, and the process repeated until a clear solution was obtained. The warm solution was left to cool down to room temperature: if any solid formed, more solvent was added, and the process repeated until the solution remained clear indefinitely. The solubility was then determined using ^1H NMR spectroscopy. […] The results are summarized in Table 1: in both the cases examined, the solubility of EPT increased substantially when mixed with MEPT.

[1] = organic solvent or mixture, thermodynamic from solid, pure compound in acetonitrile, room temperature, read-out: Solubility of the single component
[2] = pure compound in acetonitrile, room temperature
[3] = acetonitrile, RPT-TFSI and the corresponding binary blend

SMILES | solubility [1] | solubility [3] | also measured
CCN1c2ccccc2Sc2ccccc21 [EPT, N-ethylphenothiazine] | 110 mM (≈ 25 mg/mL) |  | 
CCN1c2ccccc2[S+]c2ccccc21.F[B-](F)(F)F [EPT-BF4, EPT-tetrafluoroborate] |  |  | Solubility of the single component [2]: 330 mM
CCN1c2ccccc2[S+]c2ccccc21.O=S(=O)([N-]S(=O)(=O)C(F)(F)F)C(F)(F)F [EPT-TFSI, EPT-bis(trifluoromethanesulfonyl)imide] |  | 370 mM | 
COCCN1c2ccccc2Sc2ccccc21 [MEPT, N-(2-methoxyethyl)phenothiazine] |  |  | Miscibility in acetonitrile (acetonitrile): miscible in acetonitrile in all ratios
COCCN1c2ccccc2[S+]c2ccccc21.F[B-](F)(F)F [MEPT-BF4, MEPT-tetrafluoroborate] |  |  | Solubility of the single component [2]: 310 mM
CN1c2ccccc2Sc2ccccc21 [MPT, N-methylphenothiazine] | 240 mM (≈ 51.2 mg/mL) |  | 
CN1c2ccccc2[S+]c2ccccc21.O=S(=O)([N-]S(=O)(=O)C(F)(F)F)C(F)(F)F [MPT-TFSI, MPT-bis(trifluoromethanesulfonyl)imide] |  | 1500 mM | 
c1ccc(N2c3ccccc3Sc3ccccc32)cc1 [PhPT, N-phenylphenothiazine] | 140 mM (≈ 38.6 mg/mL) |  | 
O=S(=O)([N-]S(=O)(=O)C(F)(F)F)C(F)(F)F.c1ccc(N2c3ccccc3[S+]c3ccccc32)cc1 [PhPT-TFSI, PhPT-bis(trifluoromethanesulfonyl)imide] |  | 1640 mM | 

Source: US11217811B2, “Unique redox-active phenothiazine combinations with depressed melting points for increased solubility and method of use in energy storage and in redox flow batteries” (University of Kentucky Research Foundation, priority 2019, dated 2022)
